This note sets out measurements from patent US9018258B2, “Substituted 1-benzylcycloalkylcarboxylic acids and the use thereof” (Bayer Intellectual Property GmbH, priority 2010, dated 2015).

pEC50: −log10 of the molar value.

Holding throughout (type): cell-based
The target in one test is T1, GAL4-PPARγ (Homo sapiens, UniProt P37231).
T1 construct: PPARγ (amino acids 203-506); expressed in transfected cells
T1 sequence (P37231 203-505 limits assumed): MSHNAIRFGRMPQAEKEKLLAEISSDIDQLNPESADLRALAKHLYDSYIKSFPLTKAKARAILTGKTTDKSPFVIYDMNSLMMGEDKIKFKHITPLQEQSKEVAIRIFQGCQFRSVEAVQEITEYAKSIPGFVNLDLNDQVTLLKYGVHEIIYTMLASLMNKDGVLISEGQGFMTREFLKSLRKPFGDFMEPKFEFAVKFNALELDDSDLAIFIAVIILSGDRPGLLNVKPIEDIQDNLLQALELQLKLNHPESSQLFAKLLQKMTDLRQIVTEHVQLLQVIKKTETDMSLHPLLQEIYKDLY
The experiment in a line: Cellular PPAR transactivation assay, GAL4-PPARγ chimera in CHO-K1 cells. As to conditions: for Emax: CHO-K1, maximum effect relative to reference compound (Example 73 of EP 1 452 521-A1 = 100%), read-out: PPARγ efficacy; for pEC50: CHO-K1 cells, luciferase reporter, 6 h stimulation. From the text: (§1) A cellular assay is used to test for potentially activating properties of the compounds according to the invention with respect to the three human isoforms of the peroxisome proliferator-activated receptors (PPARα, PPARγ and PPARδ).
(§2) Since mammalian cells contain different endogenous nuclear receptors which may complicate an unambiguous interpretation of the results, an established chimera system is used in which the respective ligand binding domain of the human PPAR isoforms is fused to the DNA binding domain of the yeast transcription factor GAL4. The resulting GAL4-PPARα, γ and δ chimeras are co-transfected and stably expressed in CHO cells having a reporter construct.
(§3) The GAL4-PPAR expression constructs contain the ligand binding domain of PPARα (amino acids 167-468), PPARγ (amino acids 203-506) and PPARδ (amino acids 138-442) which are PCR-amplified and cloned into the vector pcDNA3.1. The respective expression vectors already contain the GAL4 DNA binding domain (amino acids 1-147) of the vector pFC2-dbd (Stratagene). The reporter construct, which contains five copies of the GAL4 binding site upstream of a thymidine kinase promoter, expresses firefly luciferase (Photinus pyralis) following activation and binding of GAL4-PPARα, γ or δ.
(§4) The day before the test, CHO-K1 cells (chinese hamster ovary; ATCC CCL-61) each stably expressing one of the above-described GAL4-PPAR chimeras and the luciferase reporter gene construct are sown in medium [Optimem (GIBCO) with 2% activated carbon-purified foetal calf serum (Hyclone), 1.35 mM sodium pyruvate (GIBCO) and 0.2% sodium bicarbonate (GIBCO)] in a density of 1×10^3 cells in 96-well microtitre plates (Greiner) and kept in a cell incubator (96% atmospheric humidity, 5% v/v CO2, 37° C.). On the test day, the substances to be tested are taken up in the medium mentioned above, but without addition of calf serum, and added in various concentrations to the cells. After a stimulation period of 6 h, the luciferase activity is measured using a video camera. The relative light units measured give, as a function of the substance concentration, a sigmoidal stimulation curve. The EC50 values are calculated using the computer programme GraphPad PRISM (Version 3.02). The maximum effect of a test substance in the respective PPAR assay is determined as efficacy in percent in comparison to an appropriate reference compound whose maximum effect is defined as 100%.
(§5) The reference compound selected here was the compound 2-(3-{[(2-chloro-4-propoxybenzoyl)-amino]methyl}-4-ethoxybenzyl)tetrahydrofuran-2-carboxylic acid [Example 73 of EP 1 452 521-A1] which is described in the prior art as a potent pan-PPAR agonist.

Another test has as its target T2, GAL4-PPARδ (Homo sapiens, UniProt Q03181).
T2 construct: PPARδ (amino acids 138-442); expressed in transfected cells
T2 sequence (Q03181 138-441 limits assumed): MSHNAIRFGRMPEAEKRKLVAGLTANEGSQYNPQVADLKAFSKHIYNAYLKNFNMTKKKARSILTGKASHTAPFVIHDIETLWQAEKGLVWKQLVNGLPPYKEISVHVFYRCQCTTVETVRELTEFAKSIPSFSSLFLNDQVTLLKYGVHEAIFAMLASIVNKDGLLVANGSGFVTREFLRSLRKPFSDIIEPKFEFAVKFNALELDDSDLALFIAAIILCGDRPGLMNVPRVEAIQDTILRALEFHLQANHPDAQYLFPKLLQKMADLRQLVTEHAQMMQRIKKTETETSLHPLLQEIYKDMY
The experiment in a line: Cellular PPAR transactivation assay, GAL4-PPARδ chimera in CHO-K1 cells. As to conditions: for Emax: CHO-K1, maximum effect relative to reference compound (Example 73 of EP 1 452 521-A1 = 100%), read-out: PPARδ efficacy; for pEC50: CHO-K1 cells, luciferase reporter, 6 h stimulation.
Excerpt: as §1, §2, §3, §4, §5

In the next test the target is T3, GAL4-PPARα (Homo sapiens, UniProt Q07869).
T3 construct: expressed in transfected cells
T3 sequence (Q07869 167-468): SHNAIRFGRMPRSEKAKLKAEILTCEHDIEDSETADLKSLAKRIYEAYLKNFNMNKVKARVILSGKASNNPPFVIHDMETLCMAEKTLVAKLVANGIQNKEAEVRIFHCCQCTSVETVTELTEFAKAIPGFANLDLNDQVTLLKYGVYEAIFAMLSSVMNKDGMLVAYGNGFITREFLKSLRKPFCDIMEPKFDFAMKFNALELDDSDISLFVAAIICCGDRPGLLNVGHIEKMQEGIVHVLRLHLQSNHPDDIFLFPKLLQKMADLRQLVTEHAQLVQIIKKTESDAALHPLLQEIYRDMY
The experiment in a line: Cellular PPAR transactivation assay, GAL4-PPARα chimera in CHO-K1 cells. As to conditions: for Emax: CHO-K1, maximum effect relative to reference compound (Example 73 of EP 1 452 521-A1 = 100%), read-out: PPARα efficacy; for pEC50: CHO-K1 cells, luciferase reporter, 6 h stimulation.
Excerpt: as §1, §2, §3, §4, §5

Another test deals with T4, sGC (Rattus norvegicus, UniProt P20595).
T4 construct: expressed in transfected cells; host or cells: CHO reporter cell
The experiment in a line: Action at a recombinant guanylate cyclase reporter cell line (CHO reporter cell). As to conditions: CHO reporter cell in vitro. As for the experimental part: The cellular action of the compounds according to the invention is determined at a recombinant guanylate cyclase reporter cell line, as described in F. Wunder et al., Anal. Biochem. 339, 104-112 (2005).

T4 sequence (P19686 whole entry partner): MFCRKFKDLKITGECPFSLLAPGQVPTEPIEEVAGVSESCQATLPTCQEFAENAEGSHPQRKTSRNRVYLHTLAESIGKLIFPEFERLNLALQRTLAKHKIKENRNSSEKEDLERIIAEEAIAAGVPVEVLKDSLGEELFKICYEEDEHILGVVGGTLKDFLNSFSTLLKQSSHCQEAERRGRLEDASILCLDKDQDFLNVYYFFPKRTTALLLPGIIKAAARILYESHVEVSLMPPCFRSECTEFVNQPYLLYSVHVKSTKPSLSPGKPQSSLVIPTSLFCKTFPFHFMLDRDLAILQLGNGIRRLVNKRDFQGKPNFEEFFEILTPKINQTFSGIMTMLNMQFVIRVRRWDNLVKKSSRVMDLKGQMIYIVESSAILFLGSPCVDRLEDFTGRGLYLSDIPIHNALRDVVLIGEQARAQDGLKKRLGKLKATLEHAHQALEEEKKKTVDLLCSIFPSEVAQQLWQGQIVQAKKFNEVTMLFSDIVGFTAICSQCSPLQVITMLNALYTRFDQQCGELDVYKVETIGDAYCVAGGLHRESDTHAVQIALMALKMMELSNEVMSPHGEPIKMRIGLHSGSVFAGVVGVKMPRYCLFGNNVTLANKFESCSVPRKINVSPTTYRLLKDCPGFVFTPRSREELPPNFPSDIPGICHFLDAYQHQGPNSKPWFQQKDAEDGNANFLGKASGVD
T4 sequence (P20595 whole entry): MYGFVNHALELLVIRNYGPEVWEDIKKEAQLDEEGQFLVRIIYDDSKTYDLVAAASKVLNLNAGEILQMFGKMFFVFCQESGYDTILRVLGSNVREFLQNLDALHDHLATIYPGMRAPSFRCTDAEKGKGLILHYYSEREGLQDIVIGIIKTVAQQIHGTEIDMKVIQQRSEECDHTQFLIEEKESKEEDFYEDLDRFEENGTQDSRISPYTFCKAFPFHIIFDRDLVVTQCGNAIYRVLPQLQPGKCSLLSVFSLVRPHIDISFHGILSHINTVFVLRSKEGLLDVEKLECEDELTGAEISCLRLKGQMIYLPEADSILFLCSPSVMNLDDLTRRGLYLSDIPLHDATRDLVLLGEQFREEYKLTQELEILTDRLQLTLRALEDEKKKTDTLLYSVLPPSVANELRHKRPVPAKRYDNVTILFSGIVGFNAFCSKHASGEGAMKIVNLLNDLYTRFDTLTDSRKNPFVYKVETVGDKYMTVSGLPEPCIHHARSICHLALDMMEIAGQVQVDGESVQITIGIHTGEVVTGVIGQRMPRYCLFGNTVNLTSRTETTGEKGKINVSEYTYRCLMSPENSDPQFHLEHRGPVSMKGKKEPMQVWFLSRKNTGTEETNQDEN

In the case of `C[C@H]([C@H](C(=O)Nc1cc(CC2(C(=O)O)CC2(F)F)ccc1Cl)c1ccc(Cl)cc1)C(F)(F)F` (single isomer, unassigned; (+)) [Example 71], the Emax on GAL4-PPARγ is 20%; on GAL4-PPARδ it was 0%; at GAL4-PPARα it was 0%. Moreover, the pEC50 at GAL4-PPARγ is 6.34; on GAL4-PPARδ, less than 5.00; on GAL4-PPARα it was less than 5.00. Besides, the “MEC (minimum effective concentration), sGC-activating activity in the CHO reporter cell” value (shortened to “MEC (minimum effective concentration)”) on sGC stood at 3 nM.

With `Cc1ccc(CC2(C(=O)O)CC2)cc1NC(=O)[C@H](c1ccc(Cl)cc1)[C@@H](C)C(F)(F)F` [Example 33, 1-(3-{[(2S,3R)-2-(4-chlorophenyl)-4,4,4-trifluoro-3-methylbutanoyl]amino}-4-methylbenzyl)-cyclopropanecarboxylic acid], the Emax on GAL4-PPARγ came to 10%; on GAL4-PPARδ, 0%; at GAL4-PPARα, 0%. Moreover, the values for the pEC50 on GAL4-PPARγ, at GAL4-PPARδ and at GAL4-PPARα were 5.40, less than 5.00 and less than 5.00, respectively. Further, the “MEC (minimum effective concentration)” value at sGC was 3 nM.

Consider `C[C@H]([C@H](C(=O)Nc1cc(CC2(C(=O)O)CC2)ccc1F)c1ccc(C(C)(F)F)cc1)C(F)(F)F` [Example 38, 1-[3-({(2S,3R)-2-[4-(1,1-difluoroethyl)phenyl]-4,4,4-trifluoro-3-methylbutanoyl}amino)-4-fluorobenzyl]cyclopropanecarboxylic acid], for which the Emax at GAL4-PPARγ, on GAL4-PPARδ and on GAL4-PPARα was 0% each time. The pEC50 on GAL4-PPARγ, at GAL4-PPARδ and on GAL4-PPARα was less than 5.00 in each case. Also, the “MEC (minimum effective concentration)” value on sGC is reported as 0.3 nM.

For `C[C@H]([C@H](C(=O)Nc1cc(CC2(C(=O)O)CC2)ccc1F)c1ccc(C2CC2)cc1)C(F)(F)F` [Example 40, 1-(3-{[(2S,3R)-2-(4-cyclopropylphenyl)-4,4,4-trifluoro-3-methylbutanoyl]amino}-4-fluorobenzyl)cyclopropanecarboxylic acid], the Emax at GAL4-PPARγ came to 10%; at GAL4-PPARδ, 0%; on GAL4-PPARα, 0%. For the same molecule, the negative logarithm of the EC50 (pEC50) on GAL4-PPARγ was 6.92; at GAL4-PPARδ it was less than 5.00; at GAL4-PPARα it was less than 5.00. Further, the “MEC (minimum effective concentration)” value on sGC was 0.3 nM.

On to `COc1cc([C@@H](C(=O)Nc2cc(CC3(C(=O)O)CC3)ccc2F)[C@@H](C)C(F)(F)F)ccc1Cl` [Example 42, 1-(3-{[(2S,3R)-2-(4-chloro-3-methoxyphenyl)-4,4,4-trifluoro-3-methylbutanoyl]amino}-4-fluorobenzyl)cyclopropanecarboxylic acid], for which the values for the Emax on GAL4-PPARγ, on GAL4-PPARδ and on GAL4-PPARα were 10%, 0% and 0%, respectively. Further, the pEC50 on GAL4-PPARγ was 5.70; at GAL4-PPARδ, less than 5.00; at GAL4-PPARα it was less than 5.00. The “MEC (minimum effective concentration)” value on sGC is reported as 3 nM.

Turning to `CCCOc1ccc(C(=O)NCc2cc(CC3(C(=O)O)CCCO3)ccc2OCC)c(Cl)c1` (centres unmarked) [Example 73 of EP 1 452 521-A1, 2-(3-{[(2-chloro-4-propoxybenzoyl)amino]-methyl}-4-ethoxybenzyl)tetrahydrofuran-2-carboxylic acid, reference compound], the Emax on GAL4-PPARγ, at GAL4-PPARδ and on GAL4-PPARα was 100% in each case. For the same molecule, the negative-log EC50 (pEC50) is 8.05 at GAL4-PPARγ, 8.08 at GAL4-PPARδ and 8.28 on GAL4-PPARα.
